Literature values, collected in patent US8569273B2, “Ophthalmic formulations of cetirizine and methods of use” (Aciex Therapeutics, Inc., priority 2009, dated 2013).

Settings: ophthalmic antihistamine

Row | Compound | duration of action [h]
1 | O=C(O)CCCN1CCC(O[C@@H](c2ccc(Cl)cc2)c2ccccn2)CC1 [bepotastine] | 8
2 | C[C@@H]1CN([C@H]2CC[C@](C#N)(c3ccc(F)cc3)CC2)CC[C@]1(C(=O)O)c1ccccc1 [levocabastine] | 2 to 4
